The values below come from paper PMC12881674, “Activation of TRPV3 channels in bladder cancer cells stimulates ATP release” (Molecular Pharmacology, 2025).

The target of this assay is T1, rat TRPV1 (Rattus norvegicus, UniProt O35433).
T1 construct: expressed in transfected cells; host or cells: HEK293
The assay is described as follows: fluo-4 Ca2+ assay selectivity, HEK cells expressing rat TRPV1. In kind it is cell-based. The conditions noted are these: concentrations up to 50 μM. The text has this:
KU-19-19 (DSMZ no. ACC 395), CAL-29 (DSMZ no. ACC 515), 647-V (DSMZ no. ACC 414), RT-4 (DSMZ no. ACC 412), and RT-112 (DSMZ no. ACC 418) bladder cancer cell lines were obtained from the Leibniz Institute DSMZ (German Collection of Microorganisms and Cell Cultures). Human TRPV3 (NM_145068, purchased from OriGene) and mouse TRPV3 (NM_001371006), rat TRPV1, mouse TRPV2, mouse TRPV4, human TRPM2, human TRPM8, and human TRPA1 were stably transfected in HEK293 cells as described before.[27] […]
All fluorometric Ca^2+ assays were performed in HBS buffer at room temperature. […] For the primary compound screening and the generation of concentration-response analyses, a robotic liquid handling station (Freedom Evo 150; Tecan) with a built-in custom-made fluorescence plate imager was used. […] Fluorescence was excited using a 470-nm light-emitting diode, and emitted light was imaged through a 515-nm–long pass filter with a cooled Zyla 5.5 camera (Andor). Fluorescence was recorded and processed under the control of the μ-Manager 2.0 gamma software (https://micro-manager.org.[28]). After recording baseline fluorescence, compounds were dispensed into the wells via the liquid handling device. […] For further analysis, fluorescence signals were calculated for each well, corrected for background intensities and normalized to the initial signals. […]

T1 sequence (O35433 whole entry): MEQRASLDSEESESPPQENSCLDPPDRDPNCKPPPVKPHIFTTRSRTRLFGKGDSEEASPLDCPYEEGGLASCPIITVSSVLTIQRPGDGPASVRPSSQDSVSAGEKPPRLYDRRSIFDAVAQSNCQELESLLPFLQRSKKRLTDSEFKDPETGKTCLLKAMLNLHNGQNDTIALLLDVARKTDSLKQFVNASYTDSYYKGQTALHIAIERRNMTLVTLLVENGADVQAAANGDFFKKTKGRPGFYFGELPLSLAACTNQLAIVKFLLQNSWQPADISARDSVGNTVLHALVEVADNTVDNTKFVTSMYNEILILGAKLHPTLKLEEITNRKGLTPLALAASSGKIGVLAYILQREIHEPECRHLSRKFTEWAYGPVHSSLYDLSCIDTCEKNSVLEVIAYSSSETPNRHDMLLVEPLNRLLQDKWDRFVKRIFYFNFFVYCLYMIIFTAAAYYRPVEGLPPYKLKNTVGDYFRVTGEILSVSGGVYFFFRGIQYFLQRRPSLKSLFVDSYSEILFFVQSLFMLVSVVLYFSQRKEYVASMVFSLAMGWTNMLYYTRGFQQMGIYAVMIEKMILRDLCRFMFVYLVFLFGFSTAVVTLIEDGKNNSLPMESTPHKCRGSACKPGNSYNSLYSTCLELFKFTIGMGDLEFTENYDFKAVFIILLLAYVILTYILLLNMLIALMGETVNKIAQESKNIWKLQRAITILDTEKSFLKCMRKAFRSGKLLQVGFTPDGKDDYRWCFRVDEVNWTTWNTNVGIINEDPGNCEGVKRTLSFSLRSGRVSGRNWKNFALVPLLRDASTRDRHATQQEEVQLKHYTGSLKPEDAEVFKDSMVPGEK

With `COC(=O)C12CN(Cc3ccccc3)CC1(C(=O)OC)CN(Cc1ccccc1)C2` (stereo not shown) [AV3-1], the “effect on TRPV1” value is “only a minor activation”.
